In patent US11759462B2, “Spirocyclic compounds as tryptophan hydroxylase inhibitors” (priority 2013, dated 2023):
Where two headings read alike, the source gives them in different places.

Target: T1, Recombinant human TPH1 (MBP tagged) (Homo sapiens, UniProt P17752)
T1 construct: cloning full length human TPH1 cDNA in to a bacterial pMAL-c5E expression vector; made in house; host or cells: E. coli BL21 (DE3)
T1 sequence (P17752 1-444): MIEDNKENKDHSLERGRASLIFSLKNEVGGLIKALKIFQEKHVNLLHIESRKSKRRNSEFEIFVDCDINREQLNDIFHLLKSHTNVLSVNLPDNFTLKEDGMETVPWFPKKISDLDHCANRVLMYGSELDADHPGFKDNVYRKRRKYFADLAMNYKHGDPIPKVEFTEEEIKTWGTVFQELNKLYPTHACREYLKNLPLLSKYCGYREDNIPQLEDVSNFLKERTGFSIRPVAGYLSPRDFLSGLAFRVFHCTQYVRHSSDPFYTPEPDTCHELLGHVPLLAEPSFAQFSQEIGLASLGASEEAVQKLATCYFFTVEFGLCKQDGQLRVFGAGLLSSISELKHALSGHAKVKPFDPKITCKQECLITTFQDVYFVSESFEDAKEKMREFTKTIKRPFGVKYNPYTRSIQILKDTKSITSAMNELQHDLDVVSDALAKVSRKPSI
Assay: TPH1 in vitro inhibition assay (kinetic fluorescence)
Format: biochemical
Outline: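 Final mix: 15 nM MBP-TPH1, 30 μM Trp, 36 μM 6-methyltetrahydropterin, 25 μM ferrous ammonium sulfate, 50 mM MES pH 7.1, 1% DMSO, room temperature.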

[1] = read-out: TPH1 Range (TPH1 inhibition IC50)
[2] = TPH1 Range (TPH1 inhibition IC50)

IC50 [1] | IC50 [2] | SMILES
< 50 nM |  | Nc1nc(O[C@H](c2ccc(Cl)cc2-c2ccc(Cl)c(F)c2)C(F)(F)F)cc(N2CCC3(CC2)CN[C@H](C(=O)O)C3)n1 [Example 34af, (S)-8-(2-amino-6-((R)-1-(4′,5-dichloro-3′-fluoro-[1,1′-biphenyl]-2-yl)-2,2,2-trifluoroethoxy)pyrimidin-4-yl)-2,8-diazaspiro[4.5]decane-3-carboxylic acid]
50 to 300 nM |  | CCc1cc(-c2ccc3ncc(F)cc3c2)ccc1[C@@H](Oc1cc(N2CCC3(CC2)CN[C@H](C(=O)O)C3)nc(N)n1)C(F)(F)F [Example 59d, (S)-8-(2-amino-6-((R)-1-(2-ethyl-4-(3-fluoroquinolin-6-yl)phenyl)-2,2,2-trifluoroethoxy)pyrimidin-4-yl)-2,8-diazaspiro[4.5]decane-3-carboxylic acid]
50 to 300 nM |  | COc1cc(C#N)cc(-c2ccc([C@@H](Oc3cc(N4CCC5(CC4)CN[C@H](C(=O)O)C5)nc(N)n3)C(F)(F)F)cc2)c1 [Example 55aa, (S)-8-(2-amino-6-((R)-1-(3′-cyano-5′-methoxy-[1,1′-biphenyl]-4-yl)-2,2,2-trifluoroethoxy)pyrimidin-4-yl)-2,8-diazaspiro[4.5]decane-3-carboxylic acid]
50 to 300 nM |  | Cc1ccn(-c2cc(C3=CCOCC3)ccc2[C@@H](Oc2cc(N3CCC4(CC3)CN[C@H](C(=O)O)C4)nc(N)n2)C(F)(F)F)n1 [Example 1j, (S)-8-(2-amino-6-((R)-1-(4-(3,6-dihydro-2H-pyran-4-yl)-2-(3-methyl-1H-pyrazol-1-yl)phenyl)-2,2,2-trifluoroethoxy)pyrimidin-4-yl)-2,8-diazaspiro[4.5]decane-3-carboxylic acid]
 | < 50 nM | Nc1nc(O[C@H](c2ccc(Cl)cc2-c2cccc(F)c2)C(F)(F)F)cc(N2CCC3(CC2)CN[C@H](C(=O)O)C3)n1 [Example 34as, (S)-8-(2-amino-6-((R)-1-(5-chloro-3′-fluoro-[1,1′-biphenyl]-2-yl)-2,2,2-trifluoroethoxy)pyrimidin-4-yl)-2,8-diazaspiro[4.5]decane-3-carboxylic acid]
< 50 nM |  | C/C=C/c1ccc([C@@H](Oc2cc(N3CCC4(CC3)CN[C@H](C(=O)O)C4)nc(N)n2)C(F)(F)F)c(-c2cccc(S(C)(=O)=O)c2)c1 [Example 53, (S)-8-(2-Amino-6-((R)-2,2,2-trifluoro-1-(3′-(methylsulfonyl)-5-((E)-prop-1-en-1-yl)-[1,1′-biphenyl]-2-yl)ethoxy)pyrimidin-4-yl)-2,8-diazaspiro[4.5]decane-3-carboxylic acid]
50 to 300 nM |  | Cc1ccn(-c2cc(-c3ccc(S(N)(=O)=O)cc3)ccc2[C@@H](Oc2cc(N3CCC4(CC3)CN[C@H](C(=O)O)C4)nc(N)n2)C(F)(F)F)n1 [Example 1cf, (S)-8-(2-amino-6-((R)-2,2,2-trifluoro-1-(3-(3-methyl-1H-pyrazol-1-yl)-4′-sulfamoyl-[1,1′-biphenyl]-4-yl)ethoxy)pyrimidin-4-yl)-2,8-diazaspiro[4.5]decane-3-carboxylic acid]
50 to 300 nM |  | Nc1nc(O[C@H](c2ccc(Cl)cc2-c2ccc(F)c(C(F)(F)F)c2)C(F)(F)F)cc(N2CCC3(CC2)CN[C@H](C(=O)O)C3)n1 [Example 34bk, (S)-8-(2-amino-6-((R)-1-(5-chloro-4′-fluoro-3′-(trifluoromethyl)-[1,1′-biphenyl]-2-yl)-2,2,2-trifluoroethoxy)pyrimidin-4-yl)-2,8-diazaspiro[4.5]decane-3-carboxylic acid]
< 50 nM |  | Cc1ccn(-c2cc(-c3ccc(Cl)c(F)c3)ccc2[C@@H](Oc2cc(N3CCC4(CC3)CN[C@H](C(=O)O)C4)nc(N)n2)C(F)(F)F)n1 [Example 1ao, (S)-8-(2-amino-6-((R)-1-(4′-chloro-3′-fluoro-3-(3-methyl-1H-pyrazol-1-yl)-[1,1′-biphenyl]-4-yl)-2,2,2-trifluoroethoxy)pyrimidin-4-yl)-2,8-diazaspiro[4.5]decane-3-carboxylic acid]
50 to 300 nM |  | CS(=O)(=O)c1cccc(-c2cc(Cl)ccc2COc2cc(N3CCC4(CC3)CN[C@H](C(=O)O)C4)nc(N)n2)c1 [Example 62, (S)-8-(2-amino-6-((5-chloro-3′-(methylsulfonyl)-[1,1′-biphenyl]-2-yl)methoxy)pyrimidin-4-yl)-2,8-diazaspiro[4.5]decane-3-carboxylic acid]
 | 50 to 300 nM | CC(C)(C)c1cccc(-c2cc(Cl)ccc2[C@@H](Oc2cc(N3CCC4(CC3)CN[C@H](C(=O)O)C4)nc(N)n2)C(F)(F)F)c1 [Example 34bq, (S)-8-(2-amino-6-((R)-1-(3′-(tert-butyl)-5-chloro-[1,1′-biphenyl]-2-yl)-2,2,2-trifluoroethoxy)pyrimidin-4-yl)-2,8-diazaspiro[4.5]decane-3-carboxylic acid]
50 to 300 nM |  | Nc1nc(O[C@H](c2ccc(-c3ccc4c(c3)NCCN4)cc2)C(F)(F)F)cc(N2CCC3(CC2)CN[C@H](C(=O)O)C3)n1 [Example 56, (S)-8-(2-amino-6-((R)-2,2,2-trifluoro-1-(4-(1,2,3,4-tetrahydroquinoxalin-6-yl)phenyl)ethoxy)pyrimidin-4-yl)-2,8-diazaspiro[4.5]decane-3-carboxylic acid]
< 50 nM |  | Cc1ccn(-c2ccc(-c3ccc(F)c(F)c3)cc2[C@@H](Oc2cc(N3CCC4(CC3)CN[C@H](C(=O)O)C4)nc(N)n2)C(F)(F)F)n1 [Example 19o, (S)-8-(2-amino-6-((R)-1-(3′,4′-difluoro-4-(3-methyl-1H-pyrazol-1-yl)-[1,1′-biphenyl]-3-yl)-2,2,2-trifluoroethoxy)pyrimidin-4-yl)-2,8-diazaspiro[4.5] decane-3-carboxylic acid]
300 to 3000 nM |  | COc1cccc(-c2ccc([C@@H](Oc3cc(N4CCC5(CC4)CN[C@H](C(=O)O)C5)nc(N)n3)C(F)(F)F)cc2)c1F [Example 55bm, (S)-8-(2-amino-6-((R)-2,2,2-trifluoro-1-(2′-fluoro-3′-methoxy-[1,1′-biphenyl]-4-yl)ethoxy)pyrimidin-4-yl)-2,8-diazaspiro[4.5]decane-3-carboxylic acid]
300 to 3000 nM |  | Cc1ccc(C)c(-c2ccc([C@@H](Oc3cc(N4CCC5(CC4)CN[C@H](C(=O)O)C5)nc(N)n3)C(F)(F)F)cc2)c1 [Example 55cs, (S)-8-(2-amino-6-((R)-1-(2′,5′-dimethyl-[1,1′-biphenyl]-4-yl)-2,2,2-trifluoroethoxy)pyrimidin-4-yl)-2,8-diazaspiro[4.5]decane-3-carboxylic acid]
 | < 50 nM | Nc1nc(O[C@H](c2ccc(-c3ccc4ncc(F)cc4c3)cc2)C(F)(F)F)cc(N2CCC3(CC2)CN[C@H](C(=O)O)C3)n1 [Example 55dc, (S)-8-(2-amino-6-((R)-2,2,2-trifluoro-1-(4-(3-fluoroquinolin-6-yl)phenyl)ethoxy)pyrimidin-4-yl)-2,8-diazaspiro[4.5]decane-3-carboxylic acid]

SMILES | IC50 [1] | IC50 [2]
Cc1ccn(-c2cc(-c3ccc(C)c(C)c3)ccc2[C@H](Oc2cc(N3CCC4(CC3)CN[C@@H](C(=O)O)C4)nc(N)n2)C(F)(F)F)n1 [Example 54l, (R)-8-(2-amino-6-((S)-1-(3′,4′-dimethyl-3-(3-methyl-1H-pyrazol-1-yl)-[1,1′-biphenyl]-4-yl)-2,2,2-trifluoroethoxy)pyrimidin-4-yl)-2,8-diazaspiro[4.5]decane-3-carboxylic acid] |  | 3000 to 10000 nM
